Assay results: ChEMBL document CHEMBL3217712, “Improved biodistribution, pharmacokinetics and photodynamic efficacy using a new photostable sulfonamide bacteriochlorin” (Medchemcomm, 2012)
Active and inactive are the calls of the source. No cut-off for these calls is given here.

Experiments:
[1] = Biodistribution in mouse Cloudman S91 tumor bearing DBA2 mouse liver at 10 mg/kg, ip after 48 hrs; type: ADME, organism-based; set-up: dose 10 mg/kg, route intraperitoneal; settings: read-out: Drug uptake
[2] = Biodistribution in mouse Cloudman S91 tumor bearing DBA2 mouse lungs at 10 mg/kg, ip after 12 hrs; type: ADME, organism-based; set-up: dose 10 mg/kg, route intraperitoneal; settings: lung, read-out: Drug uptake
[3] = Biodistribution in mouse Cloudman S91 tumor bearing DBA2 mouse blood at 10 mg/kg, ip after 48 hrs; type: ADME, organism-based; set-up: dose 10 mg/kg, route intraperitoneal; settings: read-out: Drug uptake
Nucleic Acid [4] = assay: Ratio of drug level in tumor to skin in mouse Cloudman S91 tumor bearing DBA2 mouse at 10 mg/kg, ip; type: ADME, organism-based; set-up: dose 10 mg/kg, route intraperitoneal; settings: in vivo
[5] = Biodistribution in mouse Cloudman S91 tumor bearing DBA2 mouse tumour at 10 mg/kg, ip after 6 hrs; type: ADME, organism-based, Neoplasm; set-up: dose 10 mg/kg, route intraperitoneal; settings: read-out: Drug uptake
[6] = Biodistribution in mouse Cloudman S91 tumor bearing DBA2 mouse intestine at 10 mg/kg, ip after 72 hrs; type: ADME, organism-based; set-up: dose 10 mg/kg, route intraperitoneal; settings: read-out: Drug uptake
[7] = Biodistribution in mouse Cloudman S91 tumor bearing DBA2 mouse lungs at 10 mg/kg, ip after 48 hrs; type: ADME, organism-based; set-up: dose 10 mg/kg, route intraperitoneal; settings: lung, read-out: Drug uptake
[8] = Biodistribution in mouse Cloudman S91 tumor bearing DBA2 mouse tumour at 10 mg/kg, ip after 2 hrs; type: ADME, organism-based, Neoplasm; set-up: dose 10 mg/kg, route intraperitoneal; settings: read-out: Drug uptake
[9] = Biodistribution in mouse Cloudman S91 tumor bearing DBA2 mouse spleen at 10 mg/kg, ip after 6 hrs; type: ADME, organism-based; set-up: dose 10 mg/kg, route intraperitoneal; settings: read-out: Drug uptake
Nucleic Acid [10] = assay: Ratio of drug level in tumor to skin in ip dosed human HT29 tumor bearing mouse; type: ADME, organism-based; settings: in vivo
[11] = Biodistribution in mouse Cloudman S91 tumor bearing DBA2 mouse muscle at 10 mg/kg, ip after 6 hrs; type: ADME, organism-based, Muscle tissue; set-up: dose 10 mg/kg, route intraperitoneal; settings: read-out: Drug uptake
[12] = Biodistribution in mouse Cloudman S91 tumor bearing DBA2 mouse muscle at 10 mg/kg, ip after 24 hrs; type: ADME, organism-based, Muscle tissue; set-up: dose 10 mg/kg, route intraperitoneal; settings: read-out: Drug uptake
[13] = Biodistribution in mouse Cloudman S91 tumor bearing DBA2 mouse heart at 10 mg/kg, ip after 24 hrs; type: ADME, organism-based; set-up: dose 10 mg/kg, route intraperitoneal; settings: read-out: Drug uptake
[14] = Biodistribution in mouse Cloudman S91 tumor bearing DBA2 mouse intestine at 10 mg/kg, ip after 2 hrs; type: ADME, organism-based; set-up: dose 10 mg/kg, route intraperitoneal; settings: read-out: Drug uptake
[15] = Biodistribution in mouse Cloudman S91 tumor bearing DBA2 mouse lungs at 10 mg/kg, ip after 2 hrs; type: ADME, organism-based; set-up: dose 10 mg/kg, route intraperitoneal; settings: lung, read-out: Drug uptake
[16] = Biodistribution in mouse Cloudman S91 tumor bearing DBA2 mouse heart at 10 mg/kg, ip after 72 hrs; type: ADME, organism-based; set-up: dose 10 mg/kg, route intraperitoneal; settings: read-out: Drug uptake
[17] = Biodistribution in mouse Cloudman S91 tumor bearing DBA2 mouse heart at 10 mg/kg, ip after 48 hrs; type: ADME, organism-based; set-up: dose 10 mg/kg, route intraperitoneal; settings: read-out: Drug uptake
[18] = Biodistribution in mouse Cloudman S91 tumor bearing DBA2 mouse lungs at 10 mg/kg, ip after 72 hrs; type: ADME, organism-based; set-up: dose 10 mg/kg, route intraperitoneal; settings: lung, read-out: Drug uptake
[19] = Biodistribution in mouse Cloudman S91 tumor bearing DBA2 mouse intestine at 10 mg/kg, ip after 48 hrs; type: ADME, organism-based; set-up: dose 10 mg/kg, route intraperitoneal; settings: read-out: Drug uptake
[20] = Biodistribution in mouse Cloudman S91 tumor bearing DBA2 mouse spleen at 10 mg/kg, ip after 2 hrs; type: ADME, organism-based; set-up: dose 10 mg/kg, route intraperitoneal; settings: read-out: Drug uptake
S91 [21] = assay: Photodynamic efficacy against mouse Cloudman S91 cells allografted in DBA2 mouse assessed as hyperaemia, oedema and progressive darkening of tumor at 10 mg/kg, ip followed by irradiated with 96 J cm'-2 laser light for 20 mins; type: functional, organism-based; set-up: dose 10 mg/kg
[22] = Biodistribution in mouse Cloudman S91 tumor bearing DBA2 mouse liver at 10 mg/kg, ip after 24 hrs; type: ADME, organism-based; set-up: dose 10 mg/kg, route intraperitoneal; settings: read-out: Drug uptake
[23] = Biodistribution in mouse Cloudman S91 tumor bearing DBA2 mouse lungs at 10 mg/kg, ip after 24 hrs; type: ADME, organism-based; set-up: dose 10 mg/kg, route intraperitoneal; settings: lung, read-out: Drug uptake
[24] = Biodistribution in mouse Cloudman S91 tumor bearing DBA2 mouse tumour at 10 mg/kg, ip after 48 hrs; type: ADME, organism-based, Neoplasm; set-up: dose 10 mg/kg, route intraperitoneal; settings: read-out: Drug uptake
[25] = Biodistribution in mouse Cloudman S91 tumor bearing DBA2 mouse skin at 10 mg/kg, ip after 2 hrs; type: ADME, organism-based, Zone of skin; set-up: dose 10 mg/kg, route intraperitoneal; settings: read-out: Drug uptake
Nucleic Acid [26] = assay: Ratio of drug level in tumor to muscle in mouse Cloudman S91 tumor bearing DBA2 mouse at 10 mg/kg, ip; type: ADME, organism-based; set-up: dose 10 mg/kg, route intraperitoneal; settings: in vivo
[27] = Biodistribution in mouse Cloudman S91 tumor bearing DBA2 mouse liver at 10 mg/kg, ip after 72 hrs; type: ADME, organism-based; set-up: dose 10 mg/kg, route intraperitoneal; settings: read-out: Drug uptake
[28] = Biodistribution in mouse Cloudman S91 tumor bearing DBA2 mouse intestine at 10 mg/kg, ip after 12 hrs; type: ADME, organism-based; set-up: dose 10 mg/kg, route intraperitoneal; settings: read-out: Drug uptake
S91 [29] = assay: Photodynamic efficacy against mouse Cloudman S91 cells allografted in DBA2 mouse assessed as necrotic scab formation in tumor at 10 mg/kg, ip followed by irradiated with 96 J cm'-2 laser light for 20 mins measured after 12 hrs; type: functional, organism-based; set-up: dose 10 mg/kg
[30] = Biodistribution in mouse Cloudman S91 tumor bearing DBA2 mouse spleen at 10 mg/kg, ip after 48 hrs; type: ADME, organism-based; set-up: dose 10 mg/kg, route intraperitoneal; settings: read-out: Drug uptake
[31] = Biodistribution in mouse Cloudman S91 tumor bearing DBA2 mouse intestine at 10 mg/kg, ip after 6 hrs; type: ADME, organism-based; set-up: dose 10 mg/kg, route intraperitoneal; settings: read-out: Drug uptake
[32] = Biodistribution in mouse Cloudman S91 tumor bearing DBA2 mouse blood at 10 mg/kg, ip after 12 hrs; type: ADME, organism-based; set-up: dose 10 mg/kg, route intraperitoneal; settings: read-out: Drug uptake
S91 [33] = assay: Photodynamic efficacy against mouse Cloudman S91 cells allografted in DBA2 mouse assessed as tumor growth delay at 10 mg/kg, ip followed by irradiated with 96 J cm'-2 laser light for 20 mins relative to sulfonated bacteriochlorin; type: functional; settings: route intraperitoneal
Nucleic Acid [34] = assay: Ratio of drug level in tumor to muscle in ip dosed human HT29 tumor bearing mouse; type: ADME, organism-based; settings: in vivo
S91 [35] = assay: Photodynamic efficacy against mouse Cloudman S91 cells allografted in DBA2 mouse assessed as disappearance of tumor at 10 mg/kg, ip followed by irradiated with 96 J cm'-2 laser light for 20 mins; type: functional, organism-based; set-up: dose 10 mg/kg
[36] = Biodistribution in mouse Cloudman S91 tumor bearing DBA2 mouse kidneys at 10 mg/kg, ip after 24 hrs; type: ADME, organism-based; set-up: dose 10 mg/kg, route intraperitoneal; settings: kidney, read-out: Drug uptake
[37] = Biodistribution in mouse Cloudman S91 tumor bearing DBA2 mouse tumour at 10 mg/kg, ip after 72 hrs; type: ADME, organism-based, Neoplasm; set-up: dose 10 mg/kg, route intraperitoneal; settings: read-out: Drug uptake

concentration at 48 h [1]: 2400 ng/g
concentration at 12 h [2]: 300 ng/g
concentration at 48 h [3]: 130 ng/g
Ratio (Nucleic Acid [4]): 6
concentration at 6 h [5]: 160 ng/g
concentration at 72 h [6]: 300 ng/g
concentration at 48 h [7]: 500 ng/g
concentration at 2 h [8]: 40 ng/g
concentration at 6 h [9]: 7000 ng/g
Ratio (Nucleic Acid [10]): 1
concentration at 6 h [11]: 50 ng/g
concentration at 24 h [12]: 130 ng/g
concentration at 24 h [13]: 800 ng/g
concentration at 2 h [14]: 200 ng/g
concentration at 2 h [15]: 200 ng/g
concentration at 72 h [16]: 200 ng/g
concentration at 48 h [17]: 300 ng/g
concentration at 72 h [18]: 300 ng/g
concentration at 48 h [19]: 900 ng/g
concentration at 2 h [20]: 2300 ng/g
concentration at 24 h [22]: 2000 ng/g
concentration at 24 h [23]: 850 ng/g
concentration at 48 h [24]: 320 ng/g
concentration at 2 h [25]: 50 ng/g
Ratio (Nucleic Acid [26]): 7
concentration at 72 h [27]: 630 ng/g
concentration at 12 h [28]: 1200 ng/g
concentration at 48 h [30]: 7300 ng/g
concentration at 6 h [31]: 1800 ng/g
concentration at 12 h [32]: 970 ng/g
Ratio (Nucleic Acid [34]): 5
concentration at 24 h [36]: 500 ng/g
concentration at 72 h [37]: 150 ng/g
Compound: CCNS(=O)(=O)c1ccc(Cl)c(-c2c3nc(c(-c4c(Cl)ccc(S(=O)(=O)NCC)c4Cl)c4ccc([nH]4)c(-c4c(Cl)ccc(S(=O)(=O)NCC)c4Cl)c4nc(c(-c5c(Cl)ccc(S(=O)(=O)NCC)c5Cl)c5ccc2[nH]5)CC4)CC3)c1Cl
Activity (S91 [21]): Active
Activity (S91 [29]): Active
fold change (FC) (S91 [33]): 1.6
Activity (S91 [35]): Active
